Source: PubChem BioAssay (NCI)
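These data come from cells grown in 96-well plates and exposed to compound for 48 hours at five concentrations. GI50 marks 50% less growth. TGI denotes the concentration required for complete inhibition of growth.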

Columns and labels:
Assay in all cases: DTP human tumour cell line panel, 48 h
[1] = test system: PC-3 prostate
[2] = test system: A498 renal
[3] = test system: SNB-19 CNS
[4] = test system: SK-MEL-2 melanoma
[5] = test system: SF-539 CNS
[6] = test system: DU-145 prostate
[7] = test system: RXF 393 renal
[8] = test system: SK-OV-3 ovarian
[9] = test system: OVCAR-4 ovarian
[10] = test system: HOP-92 NSCLC
[11] = test system: MALME-3M melanoma
[12] = test system: MDA-MB-231 breast
[13] = test system: BT-549 breast
[14] = test system: T-47D breast
[15] = test system: KM12 colon
[16] = test system: NCI-H522 lung
[17] = test system: M14 melanoma
[18] = test system: SK-MEL-28 melanoma
[19] = test system: HCC-2998 colon
[20] = test system: SK-MEL-5 melanoma
[21] = test system: CAKI-1 renal
[22] = test system: EKVX NSCLC
[23] = test system: K-562 leukemia
[24] = test system: HOP-62 NSCLC
[25] = test system: MOLT-4 leukemia
[26] = test system: RPMI-8226 leukemia
[27] = test system: LOX IMVI melanoma
[28] = test system: SN12C renal
[29] = test system: OVCAR-5 ovarian
[30] = test system: HCT-15 colon
[31] = test system: CCRF-CEM leukemia
[32] = test system: UACC-62 melanoma
[33] = test system: SF-295 CNS
[34] = test system: U251 CNS
[35] = test system: SNB-75 CNS
[36] = test system: HT29 colon
[37] = test system: NCI-H226 lung
[38] = test system: COLO 205 colon
[39] = test system: UO-31 renal
[40] = test system: NCI/ADR-RES ovarian
[41] = test system: SW-620 colon
[42] = test system: MDA-MB-435
[43] = test system: HL-60(TB) leukemia
[44] = test system: HS 578T breast
[45] = test system: A549 NSCLC
[46] = test system: 786-0 renal
[47] = test system: MCF7 breast
[48] = test system: OVCAR-8 ovarian
[49] = test system: NCI-H23 lung
[50] = test system: MDA-MB-468 breast
[51] = test system: IGROV1 ovarian
[52] = test system: ACHN renal
[53] = test system: OVCAR-3 ovarian
[54] = test system: HCT-116 colon
[55] = test system: SF-268 CNS
[56] = test system: TK-10 renal
[57] = test system: NCI-H460 lung
[58] = test system: UACC-257 melanoma

## Cn1cc(NC(=O)c2cc(NC(=O)c3ccc(C#Cc4ccccc4)cc3)cn2C)cc1C(=O)NCCCN1CCOCC1
[1]
  GI50: 12.2 µM
  TGI: > 32.5 µM
[2]
  GI50: > 32.5 µM
  TGI: > 32.5 µM
[3]
  GI50: > 32.5 µM
  TGI: > 32.5 µM
[4]
  GI50: 6.15 µM
  TGI: 14.4 µM
[5]
  GI50: 6.37 µM
  TGI: 14.5 µM
[6]
  GI50: 11.6 µM
  TGI: > 32.5 µM
[7]
  GI50: 2.55 µM
  TGI: 21.1 µM
[8]
  GI50: > 32.5 µM
  TGI: > 32.5 µM
[9]
  GI50: 25.6 µM
  TGI: > 32.5 µM
[10]
  GI50: 5.05 µM
  TGI: 20.4 µM
[11]
  GI50: 13.3 µM
  TGI: > 32.5 µM
[12]
  GI50: 10.3 µM
  TGI: > 32.5 µM
[13]
  GI50: 5.22 µM
  TGI: 20 µM
[14]
  GI50: 5.88 µM
  TGI: > 32.5 µM
[15]
  GI50: 11.2 µM
  TGI: > 32.5 µM
[16]
  GI50: 8.72 µM
  TGI: > 32.5 µM
[17]
  GI50: 12.6 µM
  TGI: > 32.5 µM
[18]
  GI50: > 32.5 µM
  TGI: > 32.5 µM
[19]
  GI50: 11.9 µM
  TGI: > 32.5 µM
[20]
  GI50: 11.3 µM
  TGI: > 32.5 µM
[21]
  GI50: 17.5 µM
  TGI: > 32.5 µM
[22]
  GI50: 10.6 µM
  TGI: > 32.5 µM
[23]
  GI50: 8.4 µM
  TGI: > 32.5 µM
[24]
  GI50: 18 µM
  TGI: > 32.5 µM
[25]
  GI50: 8.41 µM
  TGI: > 32.5 µM
[26]
  GI50: 5.61 µM
  TGI: 32.3 µM
[27]
  GI50: 4.94 µM
  TGI: 9.38 µM
[28]
  GI50: 7.08 µM
  TGI: > 32.5 µM
[29]
  GI50: > 32.5 µM
  TGI: > 32.5 µM
[30]
  GI50: 5.47 µM
  TGI: 13.7 µM
[31]
  GI50: 6.76 µM
  TGI: > 32.5 µM
[32]
  GI50: 11 µM
  TGI: > 32.5 µM
[33]
  GI50: 12.6 µM
  TGI: > 32.5 µM
[34]
  GI50: 9.01 µM
  TGI: > 32.5 µM
[35]
  GI50: 6.71 µM
  TGI: > 32.5 µM
[36]
  GI50: 6.62 µM
  TGI: 22.9 µM
[37]
  GI50: 16.6 µM
  TGI: > 32.5 µM
[38]
  GI50: > 32.5 µM
  TGI: > 32.5 µM
[39]
  GI50: 14 µM
  TGI: > 32.5 µM
[40]
  GI50: 7.66 µM
  TGI: 23.8 µM
[41]
  GI50: 9.25 µM
  TGI: > 32.5 µM
[42]
  GI50: 9.91 µM
  TGI: > 32.5 µM
[43]
  GI50: 5.19 µM
  TGI: 32.3 µM
[44]
  GI50: 7.04 µM
  TGI: > 32.5 µM
[45]
  GI50: 20 µM
  TGI: > 32.5 µM
[46]
  GI50: 9.11 µM
  TGI: 29.5 µM
[47]
  GI50: 6.15 µM
  TGI: 30.8 µM
[48]
  GI50: 6.14 µM
  TGI: 20.2 µM
[49]
  GI50: 14.3 µM
  TGI: > 32.5 µM
[50]
  GI50: 7.75 µM
  TGI: 25.5 µM
[51]
  GI50: > 32.5 µM
  TGI: > 32.5 µM
[52]
  GI50: 16.4 µM
  TGI: > 32.5 µM
[53]
  GI50: 6.21 µM
  TGI: > 32.5 µM
[54]
  GI50: 8.36 µM
  TGI: > 32.5 µM
[55]
  GI50: 12.2 µM
  TGI: > 32.5 µM
[56]
  GI50: > 32.5 µM
  TGI: > 32.5 µM
[57]
  GI50: 10.1 µM
  TGI: > 32.5 µM
[58]
  GI50: 18.9 µM
  TGI: > 32.5 µM
